Measured values from PubChem BioAssay (NCI).
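Five compound concentrations were applied to cells in 96-well plates for 48 hours; endpoints were derived by simple linear interpolation of the resulting dose-response curve. At the TGI there is no net growth.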

What was measured:
Assay in all cases: DTP human tumour cell line panel, 48 h
[1] = test system: ACHN renal
[2] = test system: SF-539 CNS
[3] = test system: T-47D breast
[4] = test system: SK-MEL-28 melanoma
[5] = test system: CAKI-1 renal
[6] = test system: SR leukemia
[7] = test system: DU-145 prostate
[8] = test system: OVCAR-4 ovarian
[9] = test system: NCI-H23 lung
[10] = test system: MDA-N
[11] = test system: HOP-62 NSCLC
[12] = test system: NCI/ADR-RES ovarian
[13] = test system: UACC-62 melanoma
[14] = test system: RXF 393 renal
[15] = test system: 786-0 renal
[16] = test system: MDA-MB-435
[17] = test system: MCF7 breast
[18] = test system: HL-60(TB) leukemia
[19] = test system: OVCAR-8 ovarian
[20] = test system: RPMI-8226 leukemia
[21] = test system: SN12C renal
[22] = test system: SNB-19 CNS
[23] = test system: OVCAR-5 ovarian
[24] = test system: MOLT-4 leukemia
[25] = test system: TK-10 renal
[26] = test system: CCRF-CEM leukemia
[27] = test system: EKVX NSCLC
[28] = test system: U251 CNS
[29] = test system: SF-295 CNS
[30] = test system: A498 renal
[31] = test system: M14 melanoma
[32] = test system: NCI-H460 lung
[33] = test system: NCI-H226 lung
[34] = test system: MALME-3M melanoma
[35] = test system: SK-MEL-2 melanoma
[36] = test system: PC-3 prostate
[37] = test system: UACC-257 melanoma
[38] = test system: HT29 colon
[39] = test system: BT-549 breast
[40] = test system: UO-31 renal
[41] = test system: HS 578T breast
[42] = test system: SK-MEL-5 melanoma
[43] = test system: LOX IMVI melanoma
[44] = test system: SW-620 colon
[45] = test system: IGROV1 ovarian
[46] = test system: HCT-116 colon
[47] = test system: SF-268 CNS
[48] = test system: KM12 colon
[49] = test system: OVCAR-3 ovarian
[50] = test system: A549 NSCLC
[51] = test system: NCI-H522 lung
[52] = test system: SNB-75 CNS
[53] = test system: HCT-15 colon
[54] = test system: MDA-MB-231 breast
[55] = test system: K-562 leukemia
[56] = test system: COLO 205 colon
[57] = test system: HOP-92 NSCLC
[58] = test system: SK-OV-3 ovarian
[59] = test system: HCC-2998 colon

For `CC(CCN)(CCN)[N+](=O)[O-]`, the TGI [1] was greater than 100 µM, the TGI [2] was greater than 100 µM and the TGI [3] was greater than 100 µM. For the same compound, the TGI [4] was greater than 100 µM, the TGI [5] was greater than 100 µM and the TGI [6] was greater than 100 µM. It also gave a TGI [7] greater than 100 µM, a TGI [8] greater than 100 µM and a TGI [9] greater than 100 µM. It also gave a TGI [10] greater than 100 µM, a TGI [11] greater than 100 µM and a TGI [12] greater than 100 µM. The TGI [13] was greater than 100 µM, the TGI [14] was greater than 100 µM and the TGI [15] was greater than 100 µM. For the same compound, the TGI [16] was greater than 100 µM, the TGI [17] was greater than 100 µM and the TGI [18] was greater than 100 µM. The TGI [19] was greater than 100 µM, the TGI [20] was greater than 100 µM and the TGI [21] was greater than 100 µM. For the same compound, the TGI [22] was greater than 100 µM, the TGI [23] was greater than 100 µM and the TGI [24] was greater than 100 µM. For the same compound, the TGI [25] was greater than 100 µM, the TGI [26] was greater than 100 µM and the TGI [27] was greater than 100 µM. It also gave a TGI [28] greater than 100 µM, a TGI [29] greater than 100 µM and a TGI [30] greater than 100 µM. For the same compound, the TGI [31] was greater than 100 µM, the TGI [32] was greater than 100 µM and the TGI [33] was greater than 100 µM. It also gave a TGI [34] greater than 100 µM, a TGI [35] greater than 100 µM and a TGI [36] greater than 100 µM. The TGI [37] was greater than 100 µM, the TGI [38] was greater than 100 µM and the TGI [39] was greater than 100 µM. It also gave a TGI [40] greater than 100 µM, a TGI [41] greater than 100 µM and a TGI [42] greater than 100 µM. It also gave a TGI [43] greater than 100 µM, a TGI [44] greater than 100 µM and a TGI [45] greater than 100 µM. It also gave a TGI [46] greater than 100 µM, a TGI [47] greater than 100 µM and a TGI [48] greater than 100 µM. For the same compound, the TGI [49] was greater than 100 µM, the TGI [50] was greater than 100 µM and the TGI [51] was greater than 100 µM. The TGI [52] was greater than 100 µM, the TGI [53] was greater than 100 µM and the TGI [54] was greater than 100 µM. It also gave a TGI [55] greater than 100 µM, a TGI [56] greater than 100 µM and a TGI [57] greater than 100 µM. For the same compound, the TGI [58] was greater than 100 µM.
For `O=C(CN1CCCCC1)Nc1ccc2sc3ccccc3c(=O)c2n1`, the TGI [1] was 33.4 µM, the TGI [2] was 31.6 µM and the TGI [3] was greater than 100 µM. For the same compound, the TGI [4] was 35.2 µM, the TGI [5] was 37.7 µM and the TGI [6] was greater than 100 µM. For the same compound, the TGI [7] was greater than 100 µM, the TGI [8] was greater than 100 µM and the TGI [9] was 38.8 µM. The TGI [10] was 28.7 µM, the TGI [11] was 33.3 µM and the TGI [12] was 36.1 µM. For the same compound, the TGI [13] was 30.1 µM, the TGI [15] was 37.2 µM and the TGI [16] was 26.2 µM. It also gave a TGI [17] of 77.9 µM, a TGI [18] of 68.9 µM and a TGI [19] of 47.4 µM. The TGI [20] was 45.1 µM, the TGI [21] was 68.3 µM and the TGI [22] was 59.8 µM. For the same compound, the TGI [23] was 38.9 µM, the TGI [24] was 30 µM and the TGI [25] was 50.4 µM. It also gave a TGI [26] greater than 100 µM, a TGI [27] of 89.3 µM and a TGI [28] of 35.1 µM. The TGI [29] was 36.6 µM, the TGI [31] was 41.4 µM and the TGI [32] was 36.5 µM. For the same compound, the TGI [34] was 49 µM, the TGI [35] was 41 µM and the TGI [36] was 50.1 µM. The TGI [37] was 39.7 µM, the TGI [38] was greater than 100 µM and the TGI [39] was 43.1 µM. It also gave a TGI [40] of 21.6 µM, a TGI [41] of 45.2 µM and a TGI [42] of 36.1 µM. It also gave a TGI [43] of 26.4 µM, a TGI [44] of 31.4 µM and a TGI [45] of 37.4 µM. It also gave a TGI [46] of 26.2 µM, a TGI [47] of 74.3 µM and a TGI [48] of 38.7 µM. For the same compound, the TGI [49] was greater than 100 µM, the TGI [50] was 31.7 µM and the TGI [51] was 23.1 µM. It also gave a TGI [52] of 32.3 µM, a TGI [53] of 40.2 µM and a TGI [59] of 36.8 µM. It also gave a TGI [54] of 59.9 µM, a TGI [55] of 52.3 µM and a TGI [56] of 28.3 µM. It also gave a TGI [57] of 30 µM and a TGI [58] of 48.9 µM.
For `Cc1nc2ccccc2n1COC(Cn1ccnc1)c1ccc(Cl)cc1Cl` (stereo not given), the TGI [1] was greater than 100 µM, the TGI [2] was greater than 100 µM and the TGI [3] was greater than 100 µM. The TGI [4] was greater than 100 µM, the TGI [5] was 39 µM and the TGI [6] was greater than 100 µM. It also gave a TGI [7] greater than 100 µM, a TGI [8] greater than 100 µM and a TGI [9] greater than 100 µM. For the same compound, the TGI [10] was greater than 100 µM, the TGI [11] was greater than 100 µM and the TGI [12] was greater than 100 µM. The TGI [13] was greater than 100 µM, the TGI [15] was greater than 100 µM and the TGI [16] was greater than 100 µM. It also gave a TGI [17] greater than 100 µM, a TGI [18] of 85.4 µM and a TGI [19] greater than 100 µM. The TGI [20] was greater than 100 µM, the TGI [21] was greater than 100 µM and the TGI [22] was greater than 100 µM. The TGI [23] was greater than 100 µM, the TGI [24] was greater than 100 µM and the TGI [25] was greater than 100 µM. It also gave a TGI [26] greater than 100 µM, a TGI [27] greater than 100 µM and a TGI [28] greater than 100 µM. For the same compound, the TGI [29] was greater than 100 µM, the TGI [30] was greater than 100 µM and the TGI [31] was greater than 100 µM. The TGI [32] was 46.4 µM, the TGI [34] was greater than 100 µM and the TGI [35] was greater than 100 µM. The TGI [36] was greater than 100 µM, the TGI [37] was greater than 100 µM and the TGI [38] was greater than 100 µM. For the same compound, the TGI [39] was 91.2 µM, the TGI [40] was greater than 100 µM and the TGI [41] was greater than 100 µM. It also gave a TGI [42] of 53.5 µM, a TGI [43] greater than 100 µM and a TGI [44] greater than 100 µM. It also gave a TGI [45] greater than 100 µM, a TGI [46] greater than 100 µM and a TGI [47] greater than 100 µM. It also gave a TGI [48] greater than 100 µM, a TGI [49] greater than 100 µM and a TGI [50] greater than 100 µM. For the same compound, the TGI [51] was greater than 100 µM, the TGI [52] was greater than 100 µM and the TGI [53] was greater than 100 µM. For the same compound, the TGI [59] was greater than 100 µM, the TGI [54] was greater than 100 µM and the TGI [55] was greater than 100 µM. For the same compound, the TGI [56] was greater than 100 µM and the TGI [57] was 77.6 µM.
